target: T1, human Chk1 (GST-Chk1) (Homo sapiens, UniProt O14757); assay: Chk1 DELFIA kinase assay (2 nM GST-Chk1, 600 μM ATP); format: biochemical; settings: Biotin-GLYRSPSMPEN-amide substrate
T1 construct: made in house; host or cells: insect cells (baculovirus, Bac-to-Bac)
T1 sequence (O14757 1-476): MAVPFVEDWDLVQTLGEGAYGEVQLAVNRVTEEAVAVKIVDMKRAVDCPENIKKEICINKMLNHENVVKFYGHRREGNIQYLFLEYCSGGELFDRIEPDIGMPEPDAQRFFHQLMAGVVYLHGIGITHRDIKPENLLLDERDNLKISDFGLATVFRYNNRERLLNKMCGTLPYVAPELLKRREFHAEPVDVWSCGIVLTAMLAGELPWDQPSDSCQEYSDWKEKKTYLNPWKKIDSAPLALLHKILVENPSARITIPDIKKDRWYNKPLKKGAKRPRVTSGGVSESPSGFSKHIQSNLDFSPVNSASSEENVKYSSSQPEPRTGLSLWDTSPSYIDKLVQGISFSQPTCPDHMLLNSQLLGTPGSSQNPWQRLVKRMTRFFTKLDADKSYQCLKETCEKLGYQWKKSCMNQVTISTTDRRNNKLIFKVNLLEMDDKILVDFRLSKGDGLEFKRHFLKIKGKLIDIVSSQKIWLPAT
Protocol: Recombinant human Chk1 was expressed as a fusion protein with glutathione S-transferase at the amino-terminus (GST-Chk1) using standard baculovirus vectors and (Bac-to-Bac®) insect cell expression system purchased from GIBCO™ Invitrogen. Recombinant protein expressed in insect cells was purified using glutathione sepharose (Amersham Biotech) using standard procedures described by the manufacturer.
Chk1 DELFIA® Kinase Assay:
Assays (25 μL) utilized 2 nM GST-Chk1 containing 10 mM Tris, pH 7.5, 20% glycerol, 50 mM sodium chloride (NaCl), 0.01% Surfact-Amps® 20, 1 μM peptide stubstrate (Biotin-GLYRSPSMPEN-amide) (SEQ ID NO: 3), 01.% BSA, 2 mM DTT, 4% DMSO, 600 μM ATP, 10 MM MgCl2 and reacted for 50 minutes at room temperature. Reactions were terminated with 100 μL of Stop buffer containing 1% BSA, 10 mM Tris, pH 8.0, 150 mM NaCl, 100 mM EDTA. Stopped reactions (100 μL) were transferred to 96 well NeutrAvidin plates (Pierce) to capture the biotin-peptide substrate during a 30 minute room temperature incubation. Wells were washed and reacted with 100 μL PerkinElmer Wallac Assay Buffer containing 21.5 ng/ml anti-phospho-Ser216-Cdc25c rabbit polyclonal antibody from Cell Signaling Technology (Beverly, Mass.) and 292 ng/ml europium labeled anti-rabbit-IgG for 1 hour at room temperature. Wells were washed and europium released from the bound antibody by addition of Enhancement Solution (100 μL) (PerkinElmer Wallac) and detected using a Perkin Elmer Wallac Envison™ 2100 multilabel reader using standard manufacturer settings.

| SMILES | IC50 [nM] |
| --- | --- |
| Cc1[nH]nc2c1c(=O)n(C[C@H]1CCCNC1)c1ccc(Cl)cc21 [Example 225, 8-Chloro-3-methyl-5S-piperidin-3-ylmethyl-2,5-dihydro-pyrazolo[4,3-c]quinolin-4-one] | < 1000 |
| COCCc1[nH]nc2c1c(=O)n(C[C@@H]1CCCNC1)c1ccc(Cl)cc21 [Example 226, 8-Chloro-3-(2-methoxy-ethyl)-5R-piperidin-3-ylmethyl-2,5-dihydro-pyrazolo[4,3-c]quinolin-4-one] | < 1000 |
| COCCc1[nH]nc2c1c(=O)n(C[C@H]1CCCNC1)c1ccc(Cl)cc21 [Example 227, 8-Chloro-3-(2-methoxy-ethyl)-5S-piperidin-3-ylmethyl-2,5-dihydro-pyrazolo[4,3-c]quinolin-4-one] | < 1000 |
| Cc1[nH]nc2c1c(=O)n(CC1CNC1)c1ccc(Cl)cc21 [Example 228, 5-Azetidin-3-ylmethyl-8-chloro-3-methyl-2,5-dihydro-pyrazolo[4,3-c]quinolin-4-one] | < 1000 |
| Cc1[nH]nc2c1c(=O)n(CCC(C)(C)N)c1ccc(Cl)cc21 [Example 229, 5-(3-Amino-3-methyl-butyl)-8-chloro-3-methyl-2,5-dihydro-pyrazolo[4,3-c]quinolin-4-one] | < 1000 |
| Cc1[nH]nc2c1c(=O)n(CC(=O)C1CCCN1)c1ccc(Cl)cc21 (centres unmarked) [Example 230, 8-Chloro-3-methyl-5-(2-oxo-2-pyrrolidin-2-yl-ethyl)-2,5-dihydro-pyrazolo[4,3-c]quinolin-4-one] | < 1000 |
| CNCCCn1c(=O)c2c(C)[nH]nc2c2cc(Cl)ccc21 [Example 231, 8-Chloro-3-methyl-5-(3-methylamino-propyl)-2,5-dihydro-pyrazolo[4,3-c]quinolin-4-one] | < 1000 |
| CNCCCn1c(=O)c2c(C)[nH]nc2c2cc(I)ccc21 [Example 234, 8-Iodo-3-methyl-5-(3-methylamino-propyl)-2,5-dihydro-pyrazolo[4,3-c]quinolin-4-one] | < 1000 |
| CNCCCn1c(=O)c2c(C)[nH]nc2c2cc(C)ccc21 [Example 235, 3,8-Dimethyl-5-(3-methylamino-propyl)-2,5-dihydro-pyrazolo[4,3-c]quinolin-4-one] | < 1000 |
| CNCCCn1c(=O)c2c(CCOC)[nH]nc2c2cc(C)ccc21 [Example 236, 3-(2-Methoxy-ethyl)-8-methyl-5-(3-methylamino-propyl)-2,5-dihydro-pyrazolo[4,3-c]quinolin-4-one] | < 1000 |
| CNCCCn1c(=O)c2c(CCOC)[nH]nc2c2cc(Cl)ccc21 [Example 237, 8-Chloro-3-(2-methoxy-ethyl)-5-(3-methylamino-propyl)-2,5-dihydro-pyrazolo[4,3-c]quinolin-4-one] | < 1000 |
| CCNCCCn1c(=O)c2c(C)[nH]nc2c2cc(Cl)ccc21 [Example 238, 8-Chloro-5-(3-ethylamino-propyl)-3-methyl-2,5-dihydro-pyrazolo[4,3-c]quinolin-4-one] | < 1000 |
| CCCNCCCn1c(=O)c2c(C)[nH]nc2c2cc(Cl)ccc21 [Example 239, 8-Chloro-3-methyl-5-(3-propylamino-propyl)-2,5-dihydro-pyrazolo[4,3-c]quinolin-4-one] | < 1000 |
| Cc1[nH]nc2c1c(=O)n(CCCNCc1cccs1)c1ccc(Cl)cc21 [Example 242, 8-Chloro-3-methyl-5-{3-[(thiophen-2-ylmethyl)-amino]-propyl}-2,5-dihydro-pyrazolo[4,3-c]quinolin-4-one] | < 1000 |
| Cc1[nH]nc2c1c(=O)n(CCCNCc1ccc[nH]1)c1ccc(Cl)cc21 [Example 243, 8-Chloro-3-methyl-5-{3-[(1H-pyrrol-2-ylmethyl)-amino]-propyl}2,5-dihydro-pyrazolo[4,3-c]quinolin-4-one] | < 1000 |
| Cc1[nH]nc2c1c(=O)n(CCCNCc1ncc[nH]1)c1ccc(Cl)cc21 [Example 244, 8-Chloro-5-{3-[(1H-imidazol-2-ylmethyl)-amino]-propyl}-3-methyl-2,5-dihydro-pyrazolo[4,3-c]quinolin-4-one] | < 1000 |
| Cc1[nH]nc2c1c(=O)n(CC(O)C1CCCN1)c1ccc(Cl)cc21 (centres unmarked) [Example 246, 8-Chloro-5-(2-hydroxy-2-pyrrolidin-2-yl-ethyl)-3-methyl-2,5-dihydro-pyrazolo[4,3-c]quinolin-4-one] | < 1000 |
| CNCC(O)Cn1c(=O)c2c(C)[nH]nc2c2cc(Cl)ccc21 (centres unmarked) [Example 247, 8-Chloro-5-(2-hydroxy-3-methylamino-propyl)-3-methyl-2,5-dihydro-pyrazolo[4,3-c]quinolin-4-one] | < 1000 |
| CCNCC(O)CCn1c(=O)c2c(C)[nH]nc2c2cc(Cl)ccc21 (centres unmarked) [Example 248, 8-Chloro-5-(4-ethylamino-3-hydroxy-butyl)-3-methyl-2,5-dihydro-pyrazolo[4,3-c]quinolin-4-one] | < 1000 |
| CNCC(O)CCn1c(=O)c2c(C)[nH]nc2c2cc(Cl)ccc21 (centres unmarked) [Example 249, 8-Chloro-5-(3-hydroxy-4-methylamino-butyl)-3-methyl-2,5-dihydro-pyrazolo[4,3-c]quinolin-4-one] | < 1000 |
| CCCNCC(O)CCn1c(=O)c2c(C)[nH]nc2c2cc(Cl)ccc21 (centres unmarked) [Example 250, 8-Chloro-5-(3-hydroxy-4-propylamino-butyl)-3-methyl-2,5-dihydro-pyrazolo[4,3-c]quinolin-4-one] | < 1000 |
| Cc1[nH]nc2c1c(=O)n(CCCN)c1ccc(OCCCN)cc21 [Example 255, 8-(3-Amino-propoxy)-5-(3-amino-propyl)-3-methyl-2,5-dihydro-pyrazolo[4,3-c]quinolin-4-one] | < 1000 |
| CCOc1ccc2c(c1)c1n[nH]c(C)c1c(=O)n2CCCN [Example 256, 5-(3-Amino-propyl)-8-ethoxy-3methyl-2,5-dihydro-pyrazolo[4,3-c]quinolin-4-one] | < 1000 |
| Cc1[nH]nc2c1c(=O)n(CCCN)c1ccc(OCc3ccccc3)cc21 [Example 257, 5-(3-Amino-propyl)-8-benzyloxy-3-methyl-2,5-dihydro-pyrazolo[4,3-c]quinolin-4-one] | < 1000 |
| CCCOc1ccc2c(c1)c1n[nH]c(C)c1c(=O)n2CCCN [Example 258, 5-(3-Amino-propyl)-3-methyl-8-propoxy-2,5-dihydro-pyrazolo[4,3-c]quinolin-4-one] | < 1000 |
| Cc1[nH]nc2c1c(=O)n(CCCN)c1ccc(OCC(C)C)cc21 [Example 259, 5-(3-Amino-propyl)-8-isobutoxy-3-methyl-2,5-dihydro-pyrazolo[4,3-c]quinolin-4-one] | < 1000 |
| Cc1[nH]nc2c1c(=O)n(CCCN)c1ccc(N)cc21 [Example 260, 8-Amino-5-(3-amino-propyl)-3-methyl-2,5-dihydro-pyrazolo[4,3-c]quinolin-4-one] | < 1000 |
| CC(=O)Nc1ccc2c(c1)c1n[nH]c(C)c1c(=O)n2CCCN [Example 261, N-[5-(3-Amino-propyl)-3-methyl-4-oxo-4,5-dihydro-2H-pyrazolo[4,3-c]quinolin-8-yl]-acetamide] | < 1000 |
| Cc1[nH]nc2c1c(=O)n(CCCN)c1ccc(NC(=O)[C@@H]3CCCN3)cc21 [Example 262, Pyrrolidine-2S-carboxylic acid [5-(3-amino-propyl)-3-methyl-4-oxo-4,5-dihydro-2H-pyrazolo[4,3-c]quinolin-8-yl]-amide] | < 1000 |

Source: patent publication US20050245563A1 (Millennium Pharmaceuticals, Inc., priority 2003, published 2005)
